In one test the target is M3 muscarinic receptor (Homo sapiens, UniProt P20309). Put plainly: R-SAT competitive antagonist assay. In kind it is cell-based. The note with it: nr = no significant antagonist or inverse agonist activity up to 1 μM, nr* = nr but significant agonist activity.
Test [1] deals with T1, α1A (Alpha 1A) adrenergic receptor (Homo sapiens, UniProt P35348).
T1 sequence (P35348 1-466): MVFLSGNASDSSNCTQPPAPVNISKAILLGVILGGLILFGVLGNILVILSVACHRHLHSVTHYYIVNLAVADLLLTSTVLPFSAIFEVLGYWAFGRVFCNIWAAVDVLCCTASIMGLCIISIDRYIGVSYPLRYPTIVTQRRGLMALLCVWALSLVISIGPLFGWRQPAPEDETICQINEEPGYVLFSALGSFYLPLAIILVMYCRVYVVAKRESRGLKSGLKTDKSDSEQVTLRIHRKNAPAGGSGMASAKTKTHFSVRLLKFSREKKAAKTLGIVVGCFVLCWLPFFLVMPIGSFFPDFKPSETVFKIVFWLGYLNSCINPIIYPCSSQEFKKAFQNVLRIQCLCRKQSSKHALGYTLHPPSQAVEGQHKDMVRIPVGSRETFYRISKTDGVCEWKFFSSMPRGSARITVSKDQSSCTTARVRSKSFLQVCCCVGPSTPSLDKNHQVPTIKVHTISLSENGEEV
The note with it: R-SAT; nr = no significant antagonist or inverse agonist activity up to 1 μM; nr* = nr but significant agonist activity.

Test [2] concerns the target T1, α1A (Alpha 1A) adrenergic receptor. Description: cell-based.
In another test the target is 5-HT6A receptor (Homo sapiens, UniProt P50406). Description: R-SAT inverse agonist assay. The note with it: R-SAT; nr = no significant antagonist or inverse agonist activity up to 1 μM.
Chain of 5-HT6A receptor (P50406 whole entry): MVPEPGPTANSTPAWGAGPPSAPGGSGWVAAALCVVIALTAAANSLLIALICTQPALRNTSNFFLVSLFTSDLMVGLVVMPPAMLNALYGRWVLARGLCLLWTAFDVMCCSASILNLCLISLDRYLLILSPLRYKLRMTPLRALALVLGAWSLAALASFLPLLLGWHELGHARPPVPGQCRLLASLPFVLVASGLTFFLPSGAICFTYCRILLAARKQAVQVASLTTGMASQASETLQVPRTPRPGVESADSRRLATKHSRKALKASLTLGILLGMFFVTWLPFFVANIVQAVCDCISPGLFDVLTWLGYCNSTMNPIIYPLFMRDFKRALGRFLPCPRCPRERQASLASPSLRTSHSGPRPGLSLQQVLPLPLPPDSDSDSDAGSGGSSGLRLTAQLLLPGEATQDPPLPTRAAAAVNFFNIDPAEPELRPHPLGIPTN
For a further test, the target named is 5-HT7A receptor (Homo sapiens, UniProt P34969). Put plainly: R-SAT inverse agonist assay.
Chain of 5-HT7A receptor (P34969 1-445 isoform P34969-2): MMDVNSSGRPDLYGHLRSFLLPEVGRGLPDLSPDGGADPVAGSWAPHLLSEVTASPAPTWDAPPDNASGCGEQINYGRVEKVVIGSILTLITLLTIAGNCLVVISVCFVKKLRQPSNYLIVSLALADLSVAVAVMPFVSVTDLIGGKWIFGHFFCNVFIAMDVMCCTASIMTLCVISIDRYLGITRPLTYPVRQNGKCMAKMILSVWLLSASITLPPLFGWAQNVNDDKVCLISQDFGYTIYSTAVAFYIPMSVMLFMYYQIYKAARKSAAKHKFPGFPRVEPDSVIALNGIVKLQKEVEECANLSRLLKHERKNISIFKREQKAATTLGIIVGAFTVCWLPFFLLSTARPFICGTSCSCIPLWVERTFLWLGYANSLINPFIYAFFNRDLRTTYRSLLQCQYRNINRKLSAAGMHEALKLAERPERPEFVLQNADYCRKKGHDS
Test [3] addresses T2, 5-HT1A receptor (Homo sapiens, UniProt P08908).
T2 sequence (P08908 1-422): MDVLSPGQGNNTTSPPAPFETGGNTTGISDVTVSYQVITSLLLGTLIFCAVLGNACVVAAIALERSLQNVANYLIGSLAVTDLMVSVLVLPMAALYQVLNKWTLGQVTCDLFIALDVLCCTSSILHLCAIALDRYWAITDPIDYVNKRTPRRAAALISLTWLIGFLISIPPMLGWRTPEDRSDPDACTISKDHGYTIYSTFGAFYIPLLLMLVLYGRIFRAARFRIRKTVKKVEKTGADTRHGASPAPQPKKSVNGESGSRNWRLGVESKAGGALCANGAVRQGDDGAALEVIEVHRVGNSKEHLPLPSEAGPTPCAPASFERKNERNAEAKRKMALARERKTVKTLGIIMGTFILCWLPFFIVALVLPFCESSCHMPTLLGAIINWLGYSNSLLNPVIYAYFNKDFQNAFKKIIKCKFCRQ
Put plainly: R-SAT competitive antagonist assay.

Another test has as its target T3, M4 muscarinic receptor (Homo sapiens, UniProt P08173).
T3 sequence (P08173 1-479): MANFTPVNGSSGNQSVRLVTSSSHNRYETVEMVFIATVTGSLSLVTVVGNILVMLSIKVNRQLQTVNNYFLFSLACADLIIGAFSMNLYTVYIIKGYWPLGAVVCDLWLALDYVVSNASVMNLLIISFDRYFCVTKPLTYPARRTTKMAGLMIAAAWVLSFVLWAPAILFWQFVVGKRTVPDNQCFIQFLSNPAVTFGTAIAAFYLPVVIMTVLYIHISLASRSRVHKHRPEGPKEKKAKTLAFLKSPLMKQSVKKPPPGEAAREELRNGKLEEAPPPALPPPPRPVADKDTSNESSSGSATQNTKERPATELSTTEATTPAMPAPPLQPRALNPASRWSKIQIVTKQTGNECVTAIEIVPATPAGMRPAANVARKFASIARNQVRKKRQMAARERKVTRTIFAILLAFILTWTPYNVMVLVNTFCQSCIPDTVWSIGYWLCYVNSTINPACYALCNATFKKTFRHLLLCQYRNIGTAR
Put plainly: R-SAT competitive antagonist assay. The note with it: nr = no significant antagonist or inverse agonist activity up to 1 μM, nr* = nr but significant agonist activity.

The target of another test is T4, M5 muscarinic receptor (Homo sapiens, UniProt P08912).
T4 sequence (P08912 1-532): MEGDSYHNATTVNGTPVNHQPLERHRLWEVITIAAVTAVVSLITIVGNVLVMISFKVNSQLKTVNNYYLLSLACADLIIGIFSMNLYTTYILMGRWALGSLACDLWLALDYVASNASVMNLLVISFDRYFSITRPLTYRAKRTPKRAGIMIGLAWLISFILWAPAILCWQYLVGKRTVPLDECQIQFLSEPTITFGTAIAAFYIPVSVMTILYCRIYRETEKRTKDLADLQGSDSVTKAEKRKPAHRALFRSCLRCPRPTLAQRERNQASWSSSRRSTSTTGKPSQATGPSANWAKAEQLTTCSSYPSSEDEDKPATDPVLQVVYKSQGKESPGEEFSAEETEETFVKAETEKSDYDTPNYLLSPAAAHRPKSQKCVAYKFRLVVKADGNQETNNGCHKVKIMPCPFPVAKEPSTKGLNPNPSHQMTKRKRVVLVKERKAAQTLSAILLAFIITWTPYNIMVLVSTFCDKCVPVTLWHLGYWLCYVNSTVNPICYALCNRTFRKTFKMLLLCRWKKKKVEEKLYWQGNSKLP
Description: R-SAT competitive antagonist assay. The note with it: nr = no significant antagonist or inverse agonist activity up to 1 μM, nr* = nr but significant agonist activity.

Another test addresses T5, M1 muscarinic receptor (Homo sapiens, UniProt P11229).
T5 sequence (P11229 1-460): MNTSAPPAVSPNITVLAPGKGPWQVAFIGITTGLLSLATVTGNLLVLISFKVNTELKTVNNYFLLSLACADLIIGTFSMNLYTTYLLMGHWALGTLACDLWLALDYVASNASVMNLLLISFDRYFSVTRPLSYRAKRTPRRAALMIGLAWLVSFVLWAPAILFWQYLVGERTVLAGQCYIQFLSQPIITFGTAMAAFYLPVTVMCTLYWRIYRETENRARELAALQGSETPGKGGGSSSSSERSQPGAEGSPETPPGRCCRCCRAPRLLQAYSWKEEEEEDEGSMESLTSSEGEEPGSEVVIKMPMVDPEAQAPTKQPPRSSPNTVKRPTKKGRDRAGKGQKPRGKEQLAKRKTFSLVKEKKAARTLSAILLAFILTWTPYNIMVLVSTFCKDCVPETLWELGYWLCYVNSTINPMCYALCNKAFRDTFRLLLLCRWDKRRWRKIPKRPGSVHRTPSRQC
Put plainly: R-SAT competitive antagonist assay. More on the design: expressed in transfected cells; host or cells: NIH/3T3. In kind it is cell-based. The note with it: nr = no significant antagonist or inverse agonist activity up to 1 μM, nr* = nr but significant agonist activity.

The next test deals with T6, M2 muscarinic receptor (Homo sapiens, UniProt P08172).
T6 sequence (P08172 1-466): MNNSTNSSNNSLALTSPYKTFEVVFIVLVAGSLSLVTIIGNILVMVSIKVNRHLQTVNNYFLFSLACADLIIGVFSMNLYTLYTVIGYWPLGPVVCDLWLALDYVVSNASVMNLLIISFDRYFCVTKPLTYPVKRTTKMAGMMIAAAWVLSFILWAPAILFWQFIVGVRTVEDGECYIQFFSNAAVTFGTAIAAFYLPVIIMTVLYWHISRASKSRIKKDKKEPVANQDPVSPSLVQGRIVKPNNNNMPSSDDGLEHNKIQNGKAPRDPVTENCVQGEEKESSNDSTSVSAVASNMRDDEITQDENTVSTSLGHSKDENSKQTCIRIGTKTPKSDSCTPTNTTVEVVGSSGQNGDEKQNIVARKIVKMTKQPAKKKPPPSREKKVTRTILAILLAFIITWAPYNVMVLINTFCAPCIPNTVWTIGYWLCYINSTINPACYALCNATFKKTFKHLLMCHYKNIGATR
Put plainly: R-SAT competitive antagonist assay. In kind it is cell-based. More on the design: expressed in transfected cells; host or cells: NIH/3T3. The note with it: nr = no significant antagonist or inverse agonist activity up to 1 μM, nr* = nr but significant agonist activity.

Test [4] addresses T2, 5-HT1A receptor. Put plainly: R-SAT agonist assay. In kind it is cell-based. More on the design: expressed in transfected cells; host or cells: NIH/3T3. The note with it: relative to 8-OH-DPAT.

Chain of M3 muscarinic receptor (P20309 whole entry): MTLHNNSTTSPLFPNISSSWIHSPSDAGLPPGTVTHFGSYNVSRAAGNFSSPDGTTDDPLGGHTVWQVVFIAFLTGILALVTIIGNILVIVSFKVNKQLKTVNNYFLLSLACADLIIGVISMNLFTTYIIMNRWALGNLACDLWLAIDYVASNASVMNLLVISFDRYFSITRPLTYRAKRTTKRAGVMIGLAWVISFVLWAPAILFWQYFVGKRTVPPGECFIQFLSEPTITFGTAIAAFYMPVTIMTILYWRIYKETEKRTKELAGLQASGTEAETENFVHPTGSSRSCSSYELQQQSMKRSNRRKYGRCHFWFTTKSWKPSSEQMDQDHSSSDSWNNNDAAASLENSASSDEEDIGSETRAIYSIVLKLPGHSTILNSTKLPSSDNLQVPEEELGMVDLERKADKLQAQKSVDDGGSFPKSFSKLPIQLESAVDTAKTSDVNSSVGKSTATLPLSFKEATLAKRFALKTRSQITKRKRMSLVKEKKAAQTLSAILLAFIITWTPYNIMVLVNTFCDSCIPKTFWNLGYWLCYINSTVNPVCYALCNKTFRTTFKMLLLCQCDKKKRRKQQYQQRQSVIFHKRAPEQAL

For orientation: Ki means a dissociation constant, usually derived from enzyme kinetics or from competition with a known ligand. Read a high Ki as lower affinity. A word on the EC50: it is the midpoint of the concentration-response curve. Lower therefore signals a more potent agent. Turning to `O=C1Cc2cc(CCN3CCN(c4nsc5ccccc45)CC3)c(Cl)cc2N1` [Ziprasidone, reference compound], at M3 muscarinic receptor, the “pKi M3, competitive antagonist” value is listed as “nr”. Further, the “pKi α1A, competitive antagonist” value in test [1] stood at 7.4 ± 0.2. The Ki is 39.8 nM in [2] and above 1000 nM at 5-HT1A receptor [3]. Further, the “pEC50 5HT6A, inverse agonist” value on 5-HT6A receptor is on record as “nr”. At 5-HT7A receptor, this compound had an EC50 of 50.1 nM. The “pEC50 5HT7A, inverse agonist” value at 5-HT7A receptor (R-SAT, nr = no significant antagonist or inverse agonist activity up to 1 μM) amounted to 7.3 ± 0.1. Further, the “pKi 5-HT1A, competitive antagonist” value at 5-HT1A receptor [3] (R-SAT, nr = no significant antagonist or inverse agonist activity up to 1 μM, nr* = nr but significant agonist activity) is “nr* and nr*^2”. For the same compound, the “pKi M4, competitive antagonist” value at M4 muscarinic receptor was “nr”. At M5 muscarinic receptor, the “pKi M5, competitive antagonist” value is given as “nr”. Further, at M1 muscarinic receptor, the “pKi M1, competitive antagonist” value is “nr”. In addition, the “pKi M2, competitive antagonist” value on M2 muscarinic receptor is reported as “nr”. At 5-HT1A receptor [4], the “agonist efficacy at human 5-HT1A receptors” value was below 30%.

The values are drawn from patent US20050085463A1 (priority 2003, published 2005).
